Assays:
[1] = target: T1, VhChiP (chitooligosaccharide-specific porin, chitoporin) (Vibrio harveyi, UniProt L0RVU0); assay: biochemical; settings: read-out: WT ΔTm (CD)
T1 sequence (L0RVU0 26-375): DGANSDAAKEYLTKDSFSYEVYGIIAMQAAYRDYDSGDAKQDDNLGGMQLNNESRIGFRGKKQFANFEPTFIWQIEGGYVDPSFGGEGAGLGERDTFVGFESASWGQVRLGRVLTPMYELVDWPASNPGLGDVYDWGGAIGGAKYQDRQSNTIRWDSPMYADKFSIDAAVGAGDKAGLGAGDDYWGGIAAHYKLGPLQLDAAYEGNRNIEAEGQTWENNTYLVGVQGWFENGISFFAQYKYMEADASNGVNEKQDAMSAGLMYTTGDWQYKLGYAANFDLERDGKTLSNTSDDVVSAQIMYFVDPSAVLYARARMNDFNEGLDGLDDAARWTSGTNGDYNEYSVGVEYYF

[2] = target: T1, VhChiP (chitooligosaccharide-specific porin, chitoporin); assay: biochemical; settings: read-out: WT ΔTm (fluorescence)
[3] = target: T1, VhChiP (chitooligosaccharide-specific porin, chitoporin); assay: intrinsic tryptophan fluorescence titration; assay type: binding; settings: 20 mM phosphate pH 7.4, 0.2% LDAO, 25 °C; one-site fit

Row | SMILES | ΔTm at 100 µM [1] | ΔTm at 1000 µM [2] | K [3]
1 | CC(=O)N[C@H]1[C@H](O[C@H]2[C@H](O)[C@@H](NC(C)=O)[C@H](O[C@H]3[C@H](O)[C@@H](NC(C)=O)C(O)O[C@@H]3CO)O[C@@H]2CO)O[C@H](CO)[C@@H](O[C@@H]2O[C@H](CO)[C@@H](O[C@@H]3O[C@H](CO)[C@@H](O[C@@H]4O[C@H](CO)[C@@H](O)[C@H](O)[C@H]4NC(C)=O)[C@H](O)[C@H]3NC(C)=O)[C@H](O)[C@H]2NC(C)=O)[C@@H]1O (stereo partly shown) [Chitohexaose] | 7 °C | 8 °C | 13 ± 0.5 ×10^5 M^-1
2 | CC(=O)N[C@H]1[C@H](O[C@H]2[C@H](O)[C@@H](NC(C)=O)[C@H](O[C@H]3[C@H](O)[C@@H](NC(C)=O)C(O)O[C@@H]3CO)O[C@@H]2CO)O[C@H](CO)[C@@H](O[C@@H]2O[C@H](CO)[C@@H](O[C@@H]3O[C@H](CO)[C@@H](O)[C@H](O)[C@H]3NC(C)=O)[C@H](O)[C@H]2NC(C)=O)[C@@H]1O (stereo partly shown) [Chitopentaose] | 5.7 °C | 6 °C | 3.8 ± 0.2 ×10^5 M^-1
3 | CC(=O)N[C@H]1[C@H](O[C@H]2[C@H](O)[C@@H](NC(C)=O)C(O)O[C@@H]2CO)O[C@H](CO)[C@@H](O[C@@H]2O[C@H](CO)[C@@H](O[C@@H]3O[C@H](CO)[C@@H](O)[C@H](O)[C@H]3NC(C)=O)[C@H](O)[C@H]2NC(C)=O)[C@@H]1O (stereo partly shown) [Chitotetraose] | 3.8 °C | 5 °C | 1.4 ± 0.01 ×10^5 M^-1

Second part, the molecule after the results:

Row | ΔTm at 100 µM [1] | ΔTm at 1000 µM [2] | K [3] | SMILES
4 | 2.1 °C | 4 °C | 0.1 ± 0.04 ×10^5 M^-1 | CC(=O)N[C@H]1[C@H](O[C@H]2[C@H](O)[C@@H](NC(C)=O)C(O)O[C@@H]2CO)O[C@H](CO)[C@@H](O)[C@@H]1O (stereo partly shown) [Chitobiose]
5 | 3.2 °C | 4 °C | 0.5 ± 0.03 ×10^5 M^-1 | CC(=O)N[C@H]1[C@H](O[C@H]2[C@H](O)[C@@H](NC(C)=O)C(O)O[C@@H]2CO)O[C@H](CO)[C@@H](O[C@@H]2O[C@H](CO)[C@@H](O)[C@H](O)[C@H]2NC(C)=O)[C@@H]1O (stereo partly shown) [Chitotriose]
6 |  | 2 °C |  | CC(=O)N[C@H]1C(O)O[C@H](CO)[C@@H](O)[C@@H]1O (stereo partly drawn) [D-GlcNAc]

Reference: publication doi:10.1101/2020.06.24.169508v1 (biorxiv, 2020)
